{
  "source": "patent US20060035907A1",
  "about": "“Methods of treating abnormal cell growth using c-MET and m-TOR inhibitors” (priority 2004, published 2006)",
  "key": {"[1]": {"system": "TPR-MET transformed BaF3 cells", "assay": "Cell growth of TPR-MET transformed BaF3 cells (MTT assay or trypan blue exclusion)", "type": "cell-based, murine", "experimental": "(§1) Cells. The murine pre-B cell line BaF3 was grown in RPMI 1640 containing 10% fetal calf serum and 10% WEHI-conditioned medium as a source of murine IL-3. BaF3 cell lines transfected with a BCR/ABL, TEUABL, TEUJAK2, or TEUPDGFβR cDNA were grown in the absence of growth factors. A TPR/MET expressing BaF3 cell line was generated by transfection of an expression vector containing the TPR/MET cDNA as previously described (Sattler, M., Pride, Y. B., Ma, P., Gramlich, J. L., Chu, S. C., Quinnan, L. A., Shirazian, S., Liang, C., Podar, K., Christensen, J. G. & Salgia, R. (2003). Cancer Res, 63, 5462-9.). The number of viable cells after treatment with DMSO or PHA665752 was determined using an MTT assay (In Vitro Toxicology Assay Kit, Sigma, St. Louis, Mo.) or trypan blue exclusion.\n(§2) Referring to FIG. 1, BaF3 cells lines transformed by tyrosine kinase oncogenes were used to determine cell growth (A-C) or transwell migration (D) in response to the small molecule c-MET kinase inhibitor PHA665752. A: The relative growth of BaF3 cells transformed by TPR-MET in response to different concentrations of PHA665752 was determined after 18 h (n=3). B: TPR-MET transformed BaF3 cells were either left untreated (♦) or treated (▴) with PHA665752 (1 μM) for the indicated time in the presence or absence of IL-3 (n=3). C: BaF3 cells transformed by tyrosine kinase oncogenes were treated for 18 h with PHA665752 (1 μM) (n=3). D: Cells were treated for 18 hr with the indicated dose of PHA665752 and the spontaneous transwell migration relative to DMSO-treated cells determined (n=4).\nReferring to FIG. 5, the relative growth of BaF3 cells transformed by TPR-MET in response to different concentrations of rapamycin (0.01 nM to 10 nM) was determined in the presence (▴) or absence (▪) of PHA665752 (0.5 μM) after a 3 day culture (n=3)."}, "[2]": {"system": "BCR-ABL transformed BaF3 cells", "assay": "Cell growth of BCR-ABL transformed BaF3 cells", "type": "cell-based, murine", "experimental": "as §1\n(§3) Referring to FIG. 1, BaF3 cells lines transformed by tyrosine kinase oncogenes were used to determine cell growth (A-C) or transwell migration (D) in response to the small molecule c-MET kinase inhibitor PHA665752. A: The relative growth of BaF3 cells transformed by TPR-MET in response to different concentrations of PHA665752 was determined after 18 h (n=3). […] D: Cells were treated for 18 hr with the indicated dose of PHA665752 and the spontaneous transwell migration relative to DMSO-treated cells determined (n=4)."}, "[3]": {"system": "TEL-JAK2 transformed BaF3 cells", "assay": "Cell growth of TEL-JAK2 transformed BaF3 cells", "type": "cell-based, murine", "settings": "0.2 μM, 18 hours, FIG. 1C", "experimental": "as §1, §3"}, "[4]": {"system": "TEL-ABL transformed BaF3 cells", "assay": "Cell growth of TEL-ABL transformed BaF3 cells", "type": "cell-based, murine", "settings": "0.2 μM, 18 hours, FIG. 1C", "experimental": "as §1, §3"}, "[5]": {"system": "TEL-PDGFFBR transformed BaF3 cells", "assay": "Cell growth of TEL-PDGFFBR transformed BaF3 cells", "type": "cell-based, murine", "settings": "0.2 μM, 18 hours, FIG. 1C", "experimental": "as §1, §3"}, "parental BaF3 cells": {"system": "parental BaF3 cells", "assay": "Cell growth of IL-3 stimulated parental BaF3 cells", "type": "cell-based, murine", "settings": "0.2 μM, 72 hour culture (data not shown)"}, "BaF3.TPR-MET cells": {"system": "BaF3.TPR-MET cells", "assay": "Transwell migration assay", "type": "cell-based, murine", "settings": "Mus musculus, compared to DMSO treated cells, n=4, read-out: inhibition of the cell migration", "experimental": "as §2"}, "[6]": {"system": "TPR-MET transformed BaF3 cells", "assay": "Apoptosis assay, Annexin V / propidiumiodide staining by FACS", "type": "cell-based, murine", "settings": "0.2 µM, 18 h", "experimental": "(§4) Apoptosis assays. The activity of caspase-3-was measured in cell lysates (CaspACE Assay System, Promega) and Annexin V positive staining was determined by FACS analysis (Annexin-V-Fluos Staining Kit, Roche Diagnostics) according to the manufacturer's directions in cells that were either treated with PHA665752 or the solvent DMSO.\n(§5) Referring to FIG. 2, TPR-MET transformed BaF3 cells were treated for 18 h with either DMSO or the indicated amount of PHA665752 (n=3). A: Annexin V and propidiumiodide staining was determined by flow cytometry. B: Activity of caspase-3 was determined in cell lysate (n=3). C: The percentage of cells in different cell cycle phases was determined by flow cytometry after propidiumiodide staining (n =3)."}, "caspase-3": {"system": "caspase-3", "assay": "Caspase-3 activity in cell lysates", "type": "cell-based, murine", "settings": "compared to DMSO treated cells, 18 h, n=3, p<0.03", "experimental": "as §4, §5"}, "[7]": {"system": "TPR-MET transformed BaF3 cells", "assay": "Cell cycle analysis (propidiumiodide, FACS)", "type": "cell-based, murine", "settings": "18 h", "experimental": "Cell cycle analysis. Fixed cells were stained with propidiumiodide and cell cycle parameters analyzed by FACS analysis.\nas §5"}, "[8]": {"system": "tyrosine phosphorylation of cellular proteins in BaF3.TPR-MET cells", "assay": "Immunoblotting, tyrosine phosphorylation of cellular proteins in BaF3.TPR-MET cells", "type": "cell-based, murine", "settings": "anti-phosphotyrosine antibody (4G10), FIG. 4A", "experimental": "(§6) Immunoblotting. Proteins were extracted from whole cells by lysing them in a Tris buffer (50 mM, pH 8.0) containing NaCl (150 mM), NP40 (1%, v/v), deoxycholic acid (0.5%, w/v), sodium dodecylsulfate (0.1%, w/v), NaF (1 mM), Na3VO4 (1 mM) and glycerol (10%, v/v) (Sigma, St. Louis, Mo.) supplemented with a protease inhibitor cocktail (complete, Roche, Indianapolis, Ind.). Polyclonal antibodies against p70-S6K (Biosource International, Camarillo, Calif.), total c-MET (C-12, Santa Cruz, Santa Cruz, Calif.), phosphatidylinositol-3′-kinase (Upstate Biotechnology, Lake Placid, N.Y.) and phosphorylated AKT[Ser473] or p70-S6K[Thr421/Ser424] (Cell Signaling, Beverly, Mass.), phospho-MET[Tyr1230/1234/1235] (Biosource International, Camarillo, Calif.) as well as phosphotyrosine (4G10, Upstate Biotechnology, Lake Placid, N.Y.) were used for immunoblotting.\n(§7) Referring to FIG. 4, phosphorylation of cellular proteins was determined by immunoblotting in whole cell lysate as indicated using anti-phosphotyrosine antibody (4G10) (A), total c-MET antibody, anti-pY1230/1234/1235-MET antibody (recognizing the corresponding pY361/365/366 sites in TPR-MET), anti-pY1349-MET (recognizing the pY480 site in TPR-MET) and anti-pY1365-MET (recognizing the pY496 site in TPR-MET) phospho-antobodies (B), and phospho-AKT and phospho-S6K antibodies (C). […]"}, "[9]": {"system": "tyrosine phosphorylation of cellular proteins in BCR-ABL transformed BaF3 cells", "assay": "Immunoblotting, tyrosine phosphorylation of cellular proteins in BCR-ABL transformed BaF3 cells", "type": "cell-based, murine", "settings": "BCR-ABL transformed BaF3 cells (data not shown)", "experimental": "as §6"}, "TPR-MET": {"target": "T1, TPR-MET (Homo sapiens, UniProt P08581)", "T1 construct": "TPR portion (fusion partner, nucleoprotein TPR; human entry would be P12270); expressed in transfected cells; host or cells: BaF3 (murine pre-B cell line); the other entry of the earlier key: TPR (P12270, Nucleoprotein TPR)", "T1 sequence (P08581 with tags, fused parts or gaps)": "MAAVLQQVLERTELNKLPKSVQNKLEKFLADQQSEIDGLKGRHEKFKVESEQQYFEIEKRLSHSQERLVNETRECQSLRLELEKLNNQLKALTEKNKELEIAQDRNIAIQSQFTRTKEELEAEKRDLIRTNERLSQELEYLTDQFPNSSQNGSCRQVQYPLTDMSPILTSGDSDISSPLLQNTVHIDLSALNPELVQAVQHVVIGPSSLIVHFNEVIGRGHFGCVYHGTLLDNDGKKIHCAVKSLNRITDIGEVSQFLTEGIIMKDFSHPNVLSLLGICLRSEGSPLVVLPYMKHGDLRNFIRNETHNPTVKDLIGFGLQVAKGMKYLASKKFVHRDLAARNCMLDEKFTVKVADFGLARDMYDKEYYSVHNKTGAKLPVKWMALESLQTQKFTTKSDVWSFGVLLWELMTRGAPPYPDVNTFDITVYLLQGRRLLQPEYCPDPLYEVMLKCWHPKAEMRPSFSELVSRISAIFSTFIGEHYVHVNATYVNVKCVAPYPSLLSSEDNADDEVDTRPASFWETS", "assay": "Immunoblotting, TPR-MET autophosphorylation with phosphospecific antibodies", "type": "cell-based", "settings": "TPR-MET transformed BaF3 cells, FIG. 4B", "experimental": "as §6, §7"}, "AKT[Ser473]": {"system": "AKT[Ser473]", "assay": "Immunoblotting, phospho-AKT[Ser473] in TPR-MET transformed BaF3 cells", "type": "cell-based, murine", "settings": "FIG. 4C", "experimental": "as §6, §7"}, "p70-S6K[Thr421/Ser424]": {"system": "p70-S6K[Thr421/Ser424]", "assay": "Immunoblotting, phospho-p70-S6K[Thr421/Ser424] in TPR-MET transformed BaF3 cells", "type": "cell-based, murine", "settings": "FIG. 4C", "experimental": "as §6, §7"}},
  "data": [
    {"molecule": "Cc1[nH]c(/C=C2\\C(=O)Nc3ccc(S(=O)(=O)Cc4c(Cl)cccc4Cl)cc32)c(C)c1C(=O)N1CCC[C@@H]1CN1CCCC1", "note": "[PHA665752, (3Z)-5-[(2,6-dichlorobenzyl)sulfonyl]-3-[(3,5-dimethyl-4-{[(2R)-2-(pyrrolidin-1-ylmethyl)pyrrolidin-1-yl]carbonyl}-1H-pyrrol-2-yl)methylene]-1,3-dihydro-2H-indol-2-one]", "values": [
      {"measurement": "effect on cell growth in the absence of IL-3", "setting": "[1]; BaF3.TPR-MET, absence of IL-3, 72 hour culture, PHA665752 (1 μM) per FIG. 1B legend", "result": "completely blocked cell growth"},
      {"measurement": "IC50", "setting": "[1]; Mus musculus, BaF3.TPR-MET cells, after 18 h, FIG. 1A, read-out: IC50, inhibition of cell growth", "result": "< 60", "unit": "nM"},
      {"measurement": "effect on cell growth in the presence of IL-3", "setting": "[1]; TPR-MET transformed cells, presence of IL-3, 72 hour culture, PHA665752 (1 μM) per FIG. 1B legend", "result": "only little effect on cell growth"},
      {"measurement": "inhibition of cell growth", "setting": "[2]; 0.2 μM, 18 hours, BCR-ABL transformed BaF3 cells, FIG. 1C", "result": "did not inhibit cell growth"},
      {"measurement": "effect on cell growth in the presence of IL-3", "setting": "[2]; BCR-ABL transformed cells, control experiment, presence of IL-3, 72 hour culture, FIG. 1B", "result": "only little effect on cell growth"},
      {"measurement": "inhibition of cell growth", "setting": "[3]", "result": "did not inhibit cell growth"},
      {"measurement": "inhibition of cell growth", "setting": "[4]", "result": "did not inhibit cell growth"},
      {"measurement": "inhibition of cell growth", "setting": "[5]", "result": "did not inhibit cell growth"},
      {"measurement": "growth inhibitory effect", "setting": "parental BaF3 cells", "result": "did not observe a significant growth inhibitory effect"},
      {"measurement": "inhibition at 0.2 µM", "setting": "BaF3.TPR-MET cells", "result": "92.5 ± 3", "unit": "%"},
      {"measurement": "cells in early apoptosis (Annexin V positive)", "setting": "[6]", "result": "13.9±1.0", "unit": "%"},
      {"measurement": "cells in late apoptosis (Annexin V plus propidiumiodide positive)", "setting": "[6]", "result": "19.2±1.8", "unit": "%"},
      {"measurement": "number of apoptotic cells (of total population)", "setting": "[6]; control cells 5%", "result": 33.1, "unit": "%"},
      {"measurement": "increase in caspase-3 activity", "setting": "caspase-3", "result": "3.5±0.7", "unit": "fold"},
      {"measurement": "percentage of cells in G2/M-phase", "setting": "[7]; 0.2 μM, DMSO 12.2%", "result": 5.5, "unit": "%"},
      {"measurement": "percentage of cells in G1-phase", "setting": "[7]; 0.2 μM, DMSO 42.4%", "result": 77.0, "unit": "%"},
      {"measurement": "percentage of cells in S-phase", "setting": "[7]; 0.2 μM, DMSO 45.4%", "result": 17.5, "unit": "%"},
      {"measurement": "cells in sub-G1-phase", "setting": "[7]; consistent with apoptotic cells", "result": "increase of cells in sub-G1-phase"},
      {"measurement": "tyrosine phosphorylation of cellular proteins", "setting": "[8]", "result": "reduced tyrosine phosphorylation of cellular proteins in a dose dependent manner"},
      {"measurement": "tyrosine phosphorylation of cellular proteins", "setting": "[9]", "result": "did not alter tyrosine phosphorylation of cellular proteins"},
      {"measurement": "autophosphorylation in the catalytic tyrosine kinase domain at Tyr361/365/366, Tyr480 and Tyr496", "setting": "TPR-MET", "result": "inhibits autophosphorylation"},
      {"measurement": "serine phosphorylation of AKT[Ser473]", "setting": "AKT[Ser473]", "result": "reduced serine phosphorylation"},
      {"measurement": "phosphorylation of the mTOR substrate p70-S6K[Thr421/Ser424]", "setting": "p70-S6K[Thr421/Ser424]", "result": "reduced phosphorylation"}
    ]}
  ]
}
